ChEMBL document CHEMBL3046620, “Resistance monitoring to deltamethrin and chlorpyriphos-ethyl in 13 populations of Typhlodromus pyri Scheuten (Acari: Phytoseiidae) from vineyards in the southwest of France” (2008)

What was measured:
Type in all cases: functional
Typhlodromus pyri [1] = assay: Miticidal activity against compound treated Phaseolus vulgaris leaf-fed female Typhlodromus pyri Scheuten 3 assessed as mortality at 855 mg/l sprayed on leaf disks measured after 3 days; details: Scheuten 3, foliar, 72 h
Typhlodromus pyri [2] = assay: Miticidal activity against compound treated Phaseolus vulgaris leaf-fed female Typhlodromus pyri Scheuten 4 assessed as mortality at 855 mg/l sprayed on leaf disks measured after 3 days; details: Scheuten 4, foliar, 72 h
Typhlodromus pyri [3] = assay: Miticidal activity against compound treated Phaseolus vulgaris leaf-fed female Typhlodromus pyri Scheuten 12 assessed as mortality at 855 mg/l sprayed on leaf disks measured after 3 days; details: Scheuten 12, foliar, 72 h
Typhlodromus pyri [4] = assay: Miticidal activity against compound treated Phaseolus vulgaris leaf-fed female Typhlodromus pyri Scheuten 10 assessed as mortality at 855 mg/l sprayed on leaf disks measured after 3 days; details: Scheuten 10, foliar, 72 h
Typhlodromus pyri [5] = assay: Miticidal activity against compound treated Phaseolus vulgaris leaf-fed female Typhlodromus pyri Scheuten 11 assessed as mortality at 855 mg/l sprayed on leaf disks measured after 3 days; details: Scheuten 11, foliar, 72 h
Typhlodromus pyri [6] = assay: Miticidal activity against compound treated Phaseolus vulgaris leaf-fed female Typhlodromus pyri Scheuten 8 assessed as mortality at 855 mg/l sprayed on leaf disks measured after 3 days; details: Scheuten 8, foliar, 72 h
Typhlodromus pyri [7] = assay: Miticidal activity against compound treated Phaseolus vulgaris leaf-fed female Typhlodromus pyri Scheuten 6 assessed as mortality at 855 mg/l sprayed on leaf disks measured after 3 days; details: Scheuten 6, foliar, 72 h
Typhlodromus pyri [8] = assay: Miticidal activity against compound treated Phaseolus vulgaris leaf-fed female Typhlodromus pyri Scheuten 9 assessed as mortality at 855 mg/l sprayed on leaf disks measured after 3 days; details: Scheuten 9, foliar, 72 h
Typhlodromus pyri [9] = assay: Miticidal activity against compound treated Phaseolus vulgaris leaf-fed female Typhlodromus pyri Scheuten 5 assessed as mortality at 855 mg/l sprayed on leaf disks measured after 3 days; details: Scheuten 5, foliar, 72 h
Typhlodromus pyri [10] = assay: Miticidal activity against compound treated Phaseolus vulgaris leaf-fed female Typhlodromus pyri Scheuten 13 assessed as mortality at 855 mg/l sprayed on leaf disks measured after 3 days; details: Scheuten 13, foliar, 72 h
Typhlodromus pyri [11] = assay: Miticidal activity against compound treated Phaseolus vulgaris leaf-fed female Typhlodromus pyri Scheuten 2 assessed as mortality at 855 mg/l sprayed on leaf disks measured after 3 days; details: Scheuten 2, foliar, 72 h
Typhlodromus pyri [12] = assay: Miticidal activity against compound treated Phaseolus vulgaris leaf-fed female Typhlodromus pyri Scheuten 7 assessed as mortality at 855 mg/l sprayed on leaf disks measured after 3 days; details: Scheuten 7, foliar, 72 h
Typhlodromus pyri [13] = assay: Miticidal activity against compound treated Phaseolus vulgaris leaf-fed female Typhlodromus pyri Scheuten 1 assessed as mortality at 855 mg/l sprayed on leaf disks measured after 3 days; details: Scheuten 1, foliar, 72 h
Typhlodromus pyri [14] = assay: Miticidal activity against compound treated Phaseolus vulgaris leaf-fed female Typhlodromus pyri Scheuten 11 assessed as mortality at 17.5 mg/l sprayed on leaf disks measured after 3 days; details: Scheuten 11, foliar, 72 h
Typhlodromus pyri [15] = assay: Miticidal activity against compound treated Phaseolus vulgaris leaf-fed female Typhlodromus pyri Scheuten 13 assessed as mortality at 17.5 mg/l sprayed on leaf disks measured after 3 days; details: Scheuten 13, foliar, 72 h
Typhlodromus pyri [16] = assay: Miticidal activity against compound treated Phaseolus vulgaris leaf-fed female Typhlodromus pyri Scheuten 4 assessed as mortality at 17.5 mg/l sprayed on leaf disks measured after 3 days; details: Scheuten 4, foliar, 72 h
Typhlodromus pyri [17] = assay: Miticidal activity against compound treated Phaseolus vulgaris leaf-fed female Typhlodromus pyri Scheuten 10 assessed as mortality at 17.5 mg/l sprayed on leaf disks measured after 3 days; details: Scheuten 10, foliar, 72 h
Typhlodromus pyri [18] = assay: Miticidal activity against compound treated Phaseolus vulgaris leaf-fed female Typhlodromus pyri Scheuten 12 assessed as mortality at 17.5 mg/l sprayed on leaf disks measured after 3 days; details: Scheuten 12, foliar, 72 h
Typhlodromus pyri [19] = assay: Miticidal activity against compound treated Phaseolus vulgaris leaf-fed female Typhlodromus pyri Scheuten 8 assessed as mortality at 17.5 mg/l sprayed on leaf disks measured after 3 days; details: Scheuten 8, foliar, 72 h
Typhlodromus pyri [20] = assay: Miticidal activity against compound treated Phaseolus vulgaris leaf-fed female Typhlodromus pyri Scheuten 3 assessed as mortality at 17.5 mg/l sprayed on leaf disks measured after 3 days; details: Scheuten 3, foliar, 72 h
Typhlodromus pyri [21] = assay: Miticidal activity against compound treated Phaseolus vulgaris leaf-fed female Typhlodromus pyri Scheuten 2 assessed as mortality at 17.5 mg/l sprayed on leaf disks measured after 3 days; details: Scheuten 2, foliar, 72 h
Typhlodromus pyri [22] = assay: Miticidal activity against compound treated Phaseolus vulgaris leaf-fed female Typhlodromus pyri Scheuten 9 assessed as mortality at 17.5 mg/l sprayed on leaf disks measured after 3 days; details: Scheuten 9, foliar, 72 h
Typhlodromus pyri [23] = assay: Miticidal activity against compound treated Phaseolus vulgaris leaf-fed female Typhlodromus pyri Scheuten 5 assessed as mortality at 17.5 mg/l sprayed on leaf disks measured after 3 days; details: Scheuten 5, foliar, 72 h
Typhlodromus pyri [24] = assay: Miticidal activity against compound treated Phaseolus vulgaris leaf-fed female Typhlodromus pyri Scheuten 1 assessed as mortality at 17.5 mg/l sprayed on leaf disks measured after 3 days; details: Scheuten 1, foliar, 72 h
Typhlodromus pyri [25] = assay: Miticidal activity against compound treated Phaseolus vulgaris leaf-fed female Typhlodromus pyri Scheuten 6 assessed as mortality at 17.5 mg/l sprayed on leaf disks measured after 3 days; details: Scheuten 6, foliar, 72 h
Typhlodromus pyri [26] = assay: Miticidal activity against compound treated Phaseolus vulgaris leaf-fed female Typhlodromus pyri Scheuten 7 assessed as mortality at 17.5 mg/l sprayed on leaf disks measured after 3 days; details: Scheuten 7, foliar, 72 h

Q: For `CCOP(=S)(OCC)Oc1nc(Cl)c(Cl)cc1Cl` [CHLORPYRIFOS], which mortality at 855 µg/mL (Typhlodromus pyri [1]) is on record?
A: The mortality at 855 µg/mL was 23.6%.

Q: And the mortality at 855 µg/mL (Typhlodromus pyri [2])?
A: Its mortality at 855 µg/mL is 56.2%.

Q: And the mortality at 855 µg/mL (Typhlodromus pyri [3])?
A: The mortality at 855 µg/mL was 7.9%.

Q: And the mortality at 855 µg/mL (Typhlodromus pyri [4])?
A: The mortality at 855 µg/mL was 55.5%.

Q: What about the mortality at 855 µg/mL (Typhlodromus pyri [5]) of the same compound?
A: Its mortality at 855 µg/mL is 10.4%.

Q: What about the mortality at 855 µg/mL (Typhlodromus pyri [6]) of the same compound?
A: Its mortality at 855 µg/mL is 25.9%.

Q: What about the mortality at 855 µg/mL (Typhlodromus pyri [7]) of the same compound?
A: The mortality at 855 µg/mL was 7.6%.

Q: What about the mortality at 855 µg/mL (Typhlodromus pyri [8]) of the same compound?
A: Its mortality at 855 µg/mL is 74%.

Q: And the mortality at 855 µg/mL (Typhlodromus pyri [9])?
A: Its mortality at 855 µg/mL is 8.3%.

Q: And the mortality at 855 µg/mL (Typhlodromus pyri [10])?
A: Its mortality at 855 µg/mL is 32.5%.

Q: And the mortality at 855 µg/mL (Typhlodromus pyri [11])?
A: The mortality at 855 µg/mL was 33.3%.

Q: And the mortality at 855 µg/mL (Typhlodromus pyri [12])?
A: The mortality at 855 µg/mL was 40.9%.

Q: And the mortality at 855 µg/mL (Typhlodromus pyri [13])?
A: The mortality at 855 µg/mL was 41.1%.

Q: What does the source list for `CC1(C)[C@H](C(=O)O[C@H](C#N)c2cccc(Oc3ccccc3)c2)[C@@H]1C=C(Br)Br` [DELTAMETHRIN]?
A: mortality at 17.5 µg/mL (Typhlodromus pyri [14]): 62.9%; mortality at 17.5 µg/mL (Typhlodromus pyri [15]): 75%; mortality at 17.5 µg/mL (Typhlodromus pyri [16]): 84.3%; mortality at 17.5 µg/mL (Typhlodromus pyri [17]): 100%; mortality at 17.5 µg/mL (Typhlodromus pyri [18]): 20.6%; mortality at 17.5 µg/mL (Typhlodromus pyri [19]): 31.2%; mortality at 17.5 µg/mL (Typhlodromus pyri [20]): 61.8%; mortality at 17.5 µg/mL (Typhlodromus pyri [21]): 92%; mortality at 17.5 µg/mL (Typhlodromus pyri [22]): 74%; mortality at 17.5 µg/mL (Typhlodromus pyri [23]): 86.1%; mortality at 17.5 µg/mL (Typhlodromus pyri [24]): 90.2%; mortality at 17.5 µg/mL (Typhlodromus pyri [25]): 5.3%; mortality at 17.5 µg/mL (Typhlodromus pyri [26]): 23.6%
